Experimental findings from patent US20240376091A1, “THIADIAZOLEAMIDE DERIVATIVES AND THEIR APPLICATIONS” (ZHEJIANG UNIVERSITY, priority 2021, published 2024) are described below.

The experiment has as its target T1, AR (Homo sapiens, UniProt P10275, T878A).
T1 construct: into the androgen-dependent PCa cells (LNCaP); endogenous in cells; host or cells: LNCaP-ARR2PB-eGFP
T1 sequence (P10275 1-920 T878A): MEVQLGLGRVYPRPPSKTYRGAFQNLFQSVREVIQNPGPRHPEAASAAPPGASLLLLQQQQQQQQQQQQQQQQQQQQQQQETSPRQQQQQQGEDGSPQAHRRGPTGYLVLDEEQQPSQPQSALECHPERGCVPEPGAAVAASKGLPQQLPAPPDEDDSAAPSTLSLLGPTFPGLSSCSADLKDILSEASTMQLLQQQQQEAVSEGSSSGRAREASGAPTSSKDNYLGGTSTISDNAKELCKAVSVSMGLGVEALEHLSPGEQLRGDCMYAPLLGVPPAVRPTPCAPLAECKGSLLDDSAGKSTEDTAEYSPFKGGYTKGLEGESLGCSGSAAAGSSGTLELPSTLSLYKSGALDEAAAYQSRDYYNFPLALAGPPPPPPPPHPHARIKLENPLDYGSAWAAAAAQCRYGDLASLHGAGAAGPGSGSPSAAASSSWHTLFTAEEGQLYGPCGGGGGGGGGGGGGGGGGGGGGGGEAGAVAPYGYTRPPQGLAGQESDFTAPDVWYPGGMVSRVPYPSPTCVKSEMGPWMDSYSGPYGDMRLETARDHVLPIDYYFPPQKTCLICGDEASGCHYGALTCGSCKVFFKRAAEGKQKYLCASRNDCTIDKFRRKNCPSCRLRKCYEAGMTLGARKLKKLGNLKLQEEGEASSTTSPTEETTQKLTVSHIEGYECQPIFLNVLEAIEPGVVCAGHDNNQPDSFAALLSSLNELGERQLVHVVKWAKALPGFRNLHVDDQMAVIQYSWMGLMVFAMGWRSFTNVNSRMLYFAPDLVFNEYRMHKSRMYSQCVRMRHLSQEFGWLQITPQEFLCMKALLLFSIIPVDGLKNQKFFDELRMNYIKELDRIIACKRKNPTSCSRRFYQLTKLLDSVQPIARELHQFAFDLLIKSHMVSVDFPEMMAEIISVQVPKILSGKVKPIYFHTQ
In words: AR transcriptional activity, LNCaP-ARR2PB-eGFP reporter cells. The class given is cell-based. As to conditions: read-out: IC50 AR transcriptional activities. The text has this:
Detection principles: We conducted a stable transfection of promoter ARR2PB known for its strong AR responsiveness, into the androgen-dependent PCa cells (LNCaP). The expression of enhanced green fluorescent protein (eGFP) is depending on the degree of activation of AR. Therefore, LNCaP-ARR2PB-eGFP cell line could quantitatively determine the AR antagonistic activities of the compounds by evaluating the expression of eGFP.
`Cc1oc(-c2cccc(C(F)(F)F)c2)cc1C(=O)Nc1nc(CC(C)N2CCN(C)CC2)ns1` (stereo not shown) [Compound A-43, 2-Methyl-N-(3-(2-(4-methylpiperazin-1-yl)propyl)-1,2,4-thiadiazol-5-yl)-5-(3-(trifluoro-methyl)phenyl)furan-3-carboxamide]: the IC50 (commonly the concentration at which inhibition is half-maximal) is 40 nM.

As for `Cc1oc(-c2cccc(OC(F)(F)F)c2)cc1C(=O)Nc1nc(CC(C)N(C)C)ns1` (stereo not shown) [Compound A-44, N-(3-(2-(dimethylamino)propyl)-1,2,4-thiadiazol-5-yl)-2-methyl-5-(3-(trifluoromethoxy)phenyl)furan-3-carboxamide], the half-inhibitory concentration (IC50) came to 60 nM.

Turning to `CCN(CC)C(C)Cc1nsc(NC(=O)c2cc(-c3cccc(OC(F)F)c3)oc2C)n1` (stereo not shown) [Compound A-45, N-(3-(2-(diethylamino)propyl)-1,2,4-thiadiazol-5-yl)-5-(3-(difluoromethoxy)phenyl)-2-methylfuran-3-carboxamide], the half-inhibitory concentration (IC50) was 40 nM.

With `Cc1oc(-c2cccc(C#N)c2)cc1C(=O)Nc1nc(CC(C)N2CCCC2)ns1` (stereo not shown) [Compound A-46, 5-(3-Cyanophenyl)-2-methyl-N-(3-(2-(pyrrolidin-1-yl)propyl)-1,2,4-thiadiazol-5-yl)furan-3-carboxamide], the IC50 was found to be 410 nM.

In the case of `COc1cccc(-c2cc(C(=O)Nc3nc(CC(C)N4CCCCC4)ns3)c(C)o2)c1` (stereo not shown) [Compound A-49, 5-(3-Methoxyphenyl)-2-methyl-N-(3-(2-(piperidin-1-yl)propyl)-1,2,4-thiadiazol-5-yl)furan-3-carboxamide], the half-maximal inhibitory concentration (IC50) stood at 210 nM.

Take `Cc1oc(-c2cccc(C#N)c2)cc1C(=O)Nc1nc(CC(C)N2CCOCC2)ns1` (stereo not shown) [Compound A-52, 5-(3-Cyanophenyl)-2-methyl-N-(3-(2-morpholinopropyl)-1,2,4-thiadiazol-5-yl)furan-3-carboxamide]: the IC50 worked out at 760 nM.

Regarding `Cc1oc(-c2cccc(C#N)c2)cc1C(=O)Nc1nc(CC(C)N2CCN(C)CC2)ns1` (stereo not shown) [Compound A-56, 5-(3-Cyanophenyl)-2-methyl-N-(3-(2-(4-methylpiperazin-1-yl)propyl)-1,2,4-thiadiazol-5-yl)furan-3-carboxamide], the IC50 turned out to be 840 nM.

Turning to `Cc1oc(-c2cccc(C(F)(F)F)c2)cc1C(=O)Nc1nc(CC(C)O)ns1` (stereo not shown) [Compound A-60, N-(3-(2-hydroxypropyl)-1,2,4-thiadiazol-5-yl)-2-methyl-5-(3-(trifluoromethyl)phenyl)furan-3-carboxamide], the IC50 is 390 nM.

As to `COC(C)Cc1nsc(NC(=O)c2cc(-c3cccc(C(F)(F)F)c3)oc2C)n1` (stereo not shown) [Compound A-61, N-(3-(2-methoxypropyl)-1,2,4-thiadiazol-5-yl)-2-methyl-5-(3-(trifluoromethyl)phenyl)furan-3-carboxamide], the IC50 stood at 3820 nM.

Take `Cc1oc(-c2cccc(C(F)(F)F)c2)cc1C(=O)Nc1nc(CC(C)N)ns1` (stereo not shown) [Compound A-66, N-(3-(2-aminopropyl)-1,2,4-thiadiazol-5-yl)-2-methyl-5-(3-(trifluoromethyl)phenyl)furan-3-carboxamide]: the IC50 came out at 1390 nM.

Regarding `C/C(Cc1nsc(NC(=O)c2cc(-c3cccc(C(F)(F)F)c3)oc2C)n1)=N\O` [Compound A-69, N-(3-(2-(hydroxyimino)propyl)-1,2,4-thiadiazol-5-yl)-2-methyl-5-(3-(trifluoromethyl)phenyl)furan-3-carboxamide], the IC50 is 540 nM.

With `CO/N=C(\C)Cc1nsc(NC(=O)c2cc(-c3cccc(C(F)(F)F)c3)oc2C)n1` [Compound A-70, N-(3-(2-(methoxyimino)propyl)-1,2,4-thiadiazol-5-yl)-2-methyl-5-(3-(trifluoromethyl)phenyl)furan-3-carboxamide], the concentration for half-maximal inhibition (IC50) is 880 nM.

As to `CC(Cc1nsc(NC(=O)c2cc(-c3cccc(C(F)(F)F)c3)oc2C)n1)=C(F)F` [Compound A-80, N-(3-(3,3-difluoro-2-methylallyl)-1,2,4-thiadiazol-5-yl)-2-methyl-5-(3-(trifluoromethyl)phenyl)furan-3-carboxamide], the IC50 amounted to 810 nM.

On to `Cc1oc(-c2cccc(C(F)(F)F)c2)cc1C(=O)Nc1nc(CC(C)(F)F)ns1` [Compound A-85, N-(3-(2,2-difluoropropyl)-1,2,4-thiadiazol-5-yl)-2-methyl-5-(3-(trifluoromethyl)phenyl) furan-3-carboxamide], for which the IC50 came to 770 nM.

For `Cc1oc(-c2cccc(C(F)(F)F)c2)cc1C(=O)Nc1nc(CC(C)(C)O)ns1` [Compound A-90, N-(3-(2-hydroxy-2-methylpropyl)-1,2,4-thiadiazol-5-yl)-2-methyl-5-(3-(trifluoromethyl)phenyl)furan-3-carboxamide], the IC50 was 50 nM.

Consider `Cc1oc(-c2cccc(C(F)(F)F)c2)cc1C(=O)Nc1nc(CC(C)(C)N)ns1` [Compound A-93, N-(3-(2-amino-2-methylpropyl)-1,2,4-thiadiazol-5-yl)-2-methyl-5-(3-(trifluoromethyl)phenyl)furan-3-carboxamide], for which the concentration for half-maximal inhibition (IC50) came out at 30 nM.

For the molecule `CNC(C)Cc1nsc(NC(=O)c2cc(-c3cccc(C(F)(F)F)c3)oc2C)n1` (stereo not shown) [Compound A-96, 2-Methyl-N-(3-(2-(methylamino)propyl)-1,2,4-thiadiazol-5-yl)-5-(3-(trifluoromethyl)phenyl)furan-3-carboxamide], the 50% inhibitory concentration (IC50) came out at 160 nM.

On to `Cc1oc(-c2cccc(C(F)(F)F)c2)cc1C(=O)Nc1ncns1` [Compound A-99, 2-Methyl-N-(1,2,4-thiadiazol-5-yl)-5-(3-(trifluoromethyl)phenyl)furan-3-carboxamide], for which the half-maximal inhibitory concentration (IC50) worked out at 10400 nM.

On to `Cc1oc(-c2cccc(C(F)(F)F)c2)cc1C(=O)Nc1nc(CCl)ns1` [Compound A-105, N-(3-(chloromethyl)-1,2,4-thiadiazol-5-yl)-2-methyl-5-(3-(trifluoromethyl)phenyl)furan-3-carboxamide], for which the concentration for half-maximal inhibition (IC50) came to 22900 nM.

As to `Cc1oc(-c2cccc(C(F)(F)F)c2)cc1C(=O)Nc1nc(CN(C)C)ns1` [Compound A-106, N-(3-((dimethylamino)methyl)-1,2,4-thiadiazol-5-yl)-2-methyl-5-(3-(trifluoromethyl)phenyl)furan-3-carboxamide], the IC50 is 1670 nM.

`CCN(CC)Cc1nsc(NC(=O)c2cc(-c3cccc(C(F)(F)F)c3)oc2C)n1` [Compound A-107, N-(3-((diethylamino)methyl)-1,2,4-thiadiazol-5-yl)-2-methyl-5-(3-(trifluoromethyl)phenyl)furan-3-carboxamide]: the IC50 is 1770 nM.

As for `Cc1oc(-c2cccc(C(F)(F)F)c2)cc1C(=O)Nc1nc(CN2CCCC2)ns1` [Compound A-108, 2-Methyl-N-(3-(pyrrolidin-1-ylmethyl)-1,2,4-thiadiazol-5-yl)-5-(3-(trifluoromethyl)phenyl)furan-3-carboxamide], the IC50 is 840 nM.

Consider `Cc1oc(-c2cccc(C(F)(F)F)c2)cc1C(=O)Nc1nc(CN2CCOCC2)ns1` [Compound A-110, 2-Methyl-N-(3-(morpholinomethyl)-1,2,4-thiadiazol-5-yl)-5-(3-(trifluoromethyl)phenyl) furan-3-carboxamide], for which the IC50 amounted to 250 nM.

Take `Cc1oc(-c2cccc(C(F)(F)F)c2)cc1C(=O)Nc1nc(CN2CCN(C)CC2)ns1` [Compound A-111, 2-Methyl-N-(3-((4-methylpiperazin-1-yl)methyl)-1,2,4-thiadiazol-5-yl)-5-(3-(trifluoro-methyl)phenyl)furan-3-carboxamide]: the IC50 amounted to 570 nM.

On to `Cc1oc(-c2cccc(C#N)c2)cc1C(=O)Nc1nc(CCl)ns1` [Compound A-112, N-(3-(chloromethyl)-1,2,4-thiadiazol-5-yl)-5-(3-cyanophenyl)-2-methylfuran-3-carboxamide], for which the concentration for half-maximal inhibition (IC50) came out at 1870 nM.

As for `COc1cccc(-c2cc(C(=O)Nc3nc(CN(C)C)ns3)c(C)o2)c1` [Compound A-118, N-(3-((dimethylamino)methyl)-1,2,4-thiadiazol-5-yl)-5-(3-methoxyphenyl)-2-methylfuran-3-carboxamide], the IC50 came out at 2230 nM.

As for `CCN(CC)Cc1nsc(NC(=O)c2cc(-c3cccc(OC(F)(F)F)c3)oc2C)n1` [Compound A-123, N-(3-((diethylamino)methyl)-1,2,4-thiadiazol-5-yl)-2-methyl-5-(3-(trifluoromethoxy)phenyl)furan-3-carboxamide], the IC50 amounted to 590 nM.

For `Cc1oc(-c2cccc(OC(F)(F)F)c2)cc1C(=O)Nc1nc(CN2CCCC2)ns1` [Compound A-124, 2-Methyl-N-(3-(pyrrolidin-1-ylmethyl)-1,2,4-thiadiazol-5-yl)-5-(3-(trifluoromethoxy)phenyl)furan-3-carboxamide], the concentration for half-maximal inhibition (IC50) was determined as 40 nM.
